For orientation: fraction unbound means free concentration divided by total concentration. Usually IC50 stands for the point on the concentration scale where inhibition reaches its midpoint. A word on the MRT: it is a mean duration of stay, worked out from the concentration-time curve. Broadly, the clearance is a measure of how efficiently the substance is removed, as volume per time. Higher therefore signals efficient removal. Broadly, the Papp A→B is the apparent permeability from the apical to the basolateral side of a cell layer.

Data set [1] relates to Mus musculus. Description: Antifibrotic activity in FITC-induced C57BL/6J mouse pulmonary fibrosis model assessed as reduction in IL-6 level in BALF homogenate at 100 to 500 mg/kg, bid administered via gavage pretreated for 45 mins before FITC addition until 72 hrs after FITC application by ELISA. The class given is functional, organism-based. (In general: In an ELISA, binding on a coated surface is turned into a signal by an enzyme label.)

Data set [2] can be described thus: Fraction unbound in human plasma by equilibrium dialysis method. The class given is ADME, cell-free. (In general: In equilibrium dialysis only unbound substance equilibrates across the membrane.)
Data set [3] deals with T1, Cytochrome P450 1A2 (Homo sapiens, UniProt P05177).
T1 sequence (P05177 whole entry): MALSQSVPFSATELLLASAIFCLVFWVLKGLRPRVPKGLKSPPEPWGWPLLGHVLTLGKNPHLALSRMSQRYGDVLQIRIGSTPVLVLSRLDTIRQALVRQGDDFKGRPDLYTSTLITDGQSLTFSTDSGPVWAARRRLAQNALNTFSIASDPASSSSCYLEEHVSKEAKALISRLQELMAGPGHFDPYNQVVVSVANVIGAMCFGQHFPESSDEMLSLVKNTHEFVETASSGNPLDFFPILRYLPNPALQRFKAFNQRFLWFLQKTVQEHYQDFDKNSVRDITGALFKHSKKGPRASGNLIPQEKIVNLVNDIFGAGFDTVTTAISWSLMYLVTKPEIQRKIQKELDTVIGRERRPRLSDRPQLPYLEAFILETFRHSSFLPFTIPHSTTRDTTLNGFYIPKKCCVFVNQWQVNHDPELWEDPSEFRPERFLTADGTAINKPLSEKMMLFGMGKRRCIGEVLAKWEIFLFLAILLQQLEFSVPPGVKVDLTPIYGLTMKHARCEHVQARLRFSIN
Kind of data set: Inhibition of CYP1A2 in human liver microsomes using phenacetin as substrate after 15 mins in presence of NADPH by LC-MS/MS analysis. The class given is ADME. (Liver microsomes are vesicles of endoplasmic reticulum, rich in cytochrome P450 enzymes.)

Data set [4] is described as follows: MRT in mouse at 1 mg/kg, iv administered as bolus dose by HPLC-MS/MS analysis. The class given is ADME, organism-based. The note with it: in vivo.
Data set [5] is described as follows: Plasma clearance in mouse. The format is ADME, organism-based.
A short description of data set [6]: Clearance in mouse plasma at 0.3 mg/kg, iv administered as bolus dose by HPLC-MS/MS analysis. The class given is ADME, organism-based.
Data set [7] is described as follows: Volume of distribution at steady state in dog at 0.3 mg/kg, iv administered as infusion for 15 mins by HPLC-MS/MS analysis. The class given is ADME, organism-based, Canis lupus familiaris. Particulars: in vivo, read-out: Vdss.
Data set [8] deals with T2, Adenosine receptor A2b (Homo sapiens, UniProt P29275).
T2 sequence (P29275 whole entry): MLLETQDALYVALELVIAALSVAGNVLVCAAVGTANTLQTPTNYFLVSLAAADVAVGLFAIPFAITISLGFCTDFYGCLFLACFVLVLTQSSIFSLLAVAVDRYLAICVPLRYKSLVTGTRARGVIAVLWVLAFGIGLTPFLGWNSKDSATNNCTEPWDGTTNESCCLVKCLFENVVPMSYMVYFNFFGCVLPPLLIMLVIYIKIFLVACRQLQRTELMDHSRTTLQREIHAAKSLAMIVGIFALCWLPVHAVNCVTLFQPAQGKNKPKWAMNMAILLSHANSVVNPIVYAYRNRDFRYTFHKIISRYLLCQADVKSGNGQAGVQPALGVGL
Description: Antagonist activity at recombinant human A2B adenosine receptor expressed in CHO cells after 3 to 4 hrs by luciferase reporter gene assay. The format is cell-based.

The target of data set [9] is T3, Adenosine receptor A3 (Mus musculus, UniProt Q61618).
T3 sequence (Q61618 whole entry): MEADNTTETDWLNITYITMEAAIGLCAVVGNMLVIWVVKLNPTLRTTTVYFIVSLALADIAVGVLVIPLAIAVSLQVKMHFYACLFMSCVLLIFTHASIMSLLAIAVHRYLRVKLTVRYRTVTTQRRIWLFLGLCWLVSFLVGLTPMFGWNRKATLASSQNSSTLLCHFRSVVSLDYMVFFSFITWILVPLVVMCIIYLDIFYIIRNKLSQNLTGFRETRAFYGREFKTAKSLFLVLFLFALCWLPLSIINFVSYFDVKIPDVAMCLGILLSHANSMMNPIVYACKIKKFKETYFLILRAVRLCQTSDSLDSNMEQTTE
Kind of data set: Antagonist activity at recombinant mouse A3 adenosine receptor expressed in CHO cells after 3 to 4 hrs by luciferase reporter gene assay. The format is cell-based.

Data set [10] in a line: Clearance in dog blood at 0.3 mg/kg, iv administered as bolus dose by HPLC-MS/MS analysis. The format is ADME, organism-based, Canis lupus familiaris.
The nature of data set [11]: Apparent permeability from apical side to basolateral side in human Caco2 cells. The format is ADME, cell-based. Particulars: Caco-2.
Data set [12] can be described thus: Fraction unbound in rat plasma by equilibrium dialysis method. The format is ADME, cell-free.
The nature of data set [13]: MRT in rat at 0.3 mg/kg, iv administered as infusion for 15 mins by HPLC-MS/MS analysis. The class given is ADME, organism-based. The note with it: in vivo.
The nature of data set [14]: MRT in dog at 0.3 mg/kg, iv administered as infusion for 15 mins by HPLC-MS/MS analysis. The format is ADME, organism-based, Canis lupus familiaris. Particulars: in vivo.
In data set [15] the test system is Mus musculus. Kind of data set: Antifibrotic activity in FITC-induced C57BL/6J mouse pulmonary fibrosis model assessed as reduction in total number of cells in BALF at 100 to 500 mg/kg, bid administered via gavage pretreated for 45 mins before FITC addition until 72 hrs after FITC application. The class given is functional, organism-based.
The nature of data set [16]: Blood clearance in human by measuring intrinsic clearance in human hepatocytes by MS/MS analysis. The class given is ADME, cell-based.
A short description of data set [17]: MRT in mouse at 0.3 mg/kg, iv administered as bolus dose by HPLC-MS/MS analysis. The class given is ADME, organism-based. Particulars: in vivo.
Data set [18] has as its target T4, Nuclear receptor subfamily 1 group I member 2 (Homo sapiens, UniProt O75469).
T4 sequence (O75469 whole entry): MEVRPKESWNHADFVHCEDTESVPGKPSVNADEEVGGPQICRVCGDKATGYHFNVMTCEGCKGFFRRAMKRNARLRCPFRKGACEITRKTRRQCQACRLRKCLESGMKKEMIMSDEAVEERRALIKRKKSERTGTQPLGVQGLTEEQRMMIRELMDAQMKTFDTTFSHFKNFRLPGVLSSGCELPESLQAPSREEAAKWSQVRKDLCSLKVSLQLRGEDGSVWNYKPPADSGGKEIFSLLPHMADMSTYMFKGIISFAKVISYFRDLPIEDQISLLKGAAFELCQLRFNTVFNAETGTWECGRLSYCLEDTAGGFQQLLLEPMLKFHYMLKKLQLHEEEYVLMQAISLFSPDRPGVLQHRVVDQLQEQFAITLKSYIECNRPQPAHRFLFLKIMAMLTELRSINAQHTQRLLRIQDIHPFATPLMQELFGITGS
Description: Activation of PXR in human HepG2 cells assessed as induction of CYP3A4 expression by luciferase reporter gene assay. The class given is ADME, cell-based.

For data set [19], the target named is Adenosine receptor A2a (Homo sapiens, UniProt P29274). Kind of data set: Antagonist activity at recombinant human A2A adenosine receptor expressed in CHO cells after 3 to 4 hrs by luciferase reporter gene assay. The format is cell-based.
The nature of data set [20]: Volume of distribution at steady state in mouse at 0.3 mg/kg, iv administered as bolus dose by HPLC-MS/MS analysis. The format is ADME, organism-based. The note with it: in vivo, read-out: Vdss.
A short description of data set [21]: Volume of distribution at steady state in rat at 0.3 mg/kg, iv administered as infusion for 15 mins by HPLC-MS/MS analysis. The format is ADME, organism-based. Particulars: in vivo, read-out: Vdss.

The source made the active and inactive calls. No cut-off for these calls is given here.

Sequence of Adenosine receptor A2a (P29274 whole entry): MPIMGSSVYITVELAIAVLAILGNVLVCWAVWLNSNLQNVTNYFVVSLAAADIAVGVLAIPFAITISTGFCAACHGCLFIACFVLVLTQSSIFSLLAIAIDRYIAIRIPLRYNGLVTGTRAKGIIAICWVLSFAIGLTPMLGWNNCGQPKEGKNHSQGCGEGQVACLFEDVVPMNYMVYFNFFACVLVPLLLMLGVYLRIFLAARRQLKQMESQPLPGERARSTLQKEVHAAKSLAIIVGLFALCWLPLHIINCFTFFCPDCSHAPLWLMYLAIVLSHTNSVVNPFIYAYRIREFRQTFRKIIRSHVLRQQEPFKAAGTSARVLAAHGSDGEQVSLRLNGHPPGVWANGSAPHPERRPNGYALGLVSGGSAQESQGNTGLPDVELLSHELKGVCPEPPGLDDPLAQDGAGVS

For the compound `CCn1c(=O)c2c(C)c(C(=O)N3CCC(O)CC3)sc2n(CCC(F)(F)F)c1=O`, the outcome in data set [1] was inactive. In addition, the fraction unbound in [2] worked out at 0.6; in [12], 0.7. For the same compound, the IC50 was > 20000 nM in [3], 66 nM in data set [8], > 6700 nM in [9] and 820 nM in data set [19]. Further, the MRT in data set [4] worked out at 1.2 h; in data set [13], 1.3 h; in [14], 4.9 h; in [17] it was 0.65 h. In addition, the clearance in data set [5] was 10.2 mL/min/kg; in data set [6], 10.2 mL/min/kg; in [10], 7.33 mL/min/kg. Further, the Vd in [7] amounted to 2 L/kg; in [20], 0.4 L/kg; in [21] it was 1.5 L/kg. The Papp A→B in data set [11] was found to be 48 ×10⁻⁶ cm/s. Besides, the result in data set [15] was Active. For the same compound, the CLhep predicted in data set [16] is < 3.5 mL/min/kg. Further, the MEC in data set [18] is recorded as 21 ×10⁻⁶ mol/L.

Values taken from ChEMBL document CHEMBL4422615, “Novel non-xanthine antagonist of the A2B adenosine receptor: From HTS hit to lead structure” (Eur J Med Chem, 2019).
